From patent US20050113286A1, “Methods for treating congestive heart failure” (priority 2002, published 2005)
“Also recorded” adds a separate entry of the source.

Experiments:
[1] = tested on: patients with chronic decompensated HF; assay: FUSION I: global clinical status, 7-point ordinal scale; assay type: in vivo, human; details: for Investigators' assessment: Reported improvement from baseline (%): moderately or markedly improved; for Investigators' assessment: Mean change from baseline / Patients' assessment: Mean change from baseline: scale −3 to +3
Protocol: At weeks 4, 8, and 12, the change from baseline global clinical status was assessed by both the patient and the investigator; assessments were rated on a 7-point ordinal scale from markedly worse (−3) to markedly better (+3).^1l,12 In addition, patients' assessment of quality of life was measured at baseline and at weeks 4, 8, and 12 using the Minnesota Living With HF questionnaire. (Rector TS, Kubo SH, Cohn J N. Patients' self-assessment of their congestive heart failure. Part 2: Content, reliability and validity of a new measure, The Minnesota Living with Heart Failure Questionnaire. Heart Failure 1987;October/November:198-209.)

endothelin-1 = assay: FUSION I: serum endothelin-1; assay type: in vivo, human
Text: Surrogate measures with mechanistic implications included measures of serum aldosterone, serum endothelin-1, and serial measurements of ventricular function using ejection fractions derived from echocardiography. […] Left ventricular ejection fractions were serially measured and read at a core lab (Midwest Heart Foundation Echocardiographic Core Laboratory, Lombard, Ill.).

[2] = tested on: patients with chronic decompensated HF; assay: FUSION I: safety and tolerability of serial outpatient nesiritide infusions; assay type: in vivo; details: for Patients discontinued from the study before week 12 because of an AE, number / Patients discontinued from the study prematurely due to an AE, %: primarily worsening HF
Protocol: The objective of the FUSION I study was to assess the safety and tolerability of nesiritide when administered in an outpatient setting as serial parenteral infusions to patients with chronic decompensated HF who were at high risk for hospitalization and were receiving established usual therapy for HF. The study compared usual care with usual care plus nesiritide given as 1 of 2 dosing strategies. All patients were evaluated weekly and treated in established HF clinics.
In this multicenter, open-label, pilot study, patients were randomly assigned to 1 of 3 treatment groups in a 1:1:1 ratio: (1) usual care, as determined by the investigating physician; (2) usual care plus nesiritide 0.005 μg/kg/min given for 4 to 6 hours, preceded by a 1.0-μg/kg bolus; or (3) usual care plus nesiritide 0.01 μg/kg/min given for 4 to 6 hours, preceded by a 2.0-μg/kg bolus (FIG. 1). The study treatment period was 12 weeks with an additional 4 weeks of follow-up. Nesiritide (Natrecor®) was supplied by Scios Inc., Fremont, Calif. Informed consent was obtained from each patient prior to enrollment, and the Ethics Committee of each institution prospectively approved the study.
All patients, regardless of treatment assignment, were required to have weekly clinic visits in an established HF clinic. If the patient had been randomized to nesiritide, half of the protocol-specified nesiritide dose was administered on the first weekly visit to assess safety. The 0.005 μg/kg/min nesiritide group received a 0.5 μg/kg bolus followed by a 0.0025 μg/kg/min infusion; and the 0.01 μg/kg/min nesiritide group received a 1.0 μg/kg bolus followed by a 0.005 μg/kg/min infusion. At subsequent visits (starting with week 2), the dose was increased to the protocol-specified dose for that group.
Nesiritide was administered as an IV bolus immediately followed by a fixed-rate infusion for 4 to 6 hours, based on the investigators' discretion, for 12 consecutive weeks. Before each infusion, the investigator assessed the patient's hydration status and HF symptoms as per the protocol. The investigator could choose the infusion frequency from once every other week to twice weekly based on hydration status and HF symptoms.
The primary goal of this open-label study was to assess the safety and tolerability of different nesiritide doses administered as serial outpatient infusions. Safety and tolerability were measured through investigator reporting of adverse events (AEs), serious AEs, discontinuations of study infusions, laboratory assessments, and vital signs. An AE was defined as any new onset or worsening of any medical condition since study entry. A serious AE were those AEs, which lead to death, hospitalization, or prolonged hospitalization. The effect of nesiritide infusions on renal function was also monitored as a safety variable, with renal AEs defined as increased blood urea nitrogen (BUN) or serum creatinine levels (determined by investigator's discretion), onset of oliguria, or occurrence of acute renal failure. Clinical events were followed to further evaluate safety and tolerability.

[3] = tested on: patients with acutely decompensated congestive heart failure; details: in vivo; cited from earlier work
[4] = week 4, both nesiritide groups, count in cell 125
[5] = week 12, 0.01 μg/kg/min, count in cell 51
[6] = 0.005 μg/kg/min, n = 72, 819 infusions
[7] = 0.01 μg/kg/min, n = 69, 826 infusions
[8] = all nesiritide patients, n = 141
[9] = all nesiritide patients, n = 141, 1645 infusions

## Nesiritide: a recombinant form of human B-type natriuretic peptide (BNP)
[1]; 0.01-μg/kg/min group, p≦0.004 at all time points
  Global clinical status, investigators' assessments, compared with usual-care group: significant improvement
[1]; all treatment groups
  Global clinical status, patients' assessments, among treatment groups: no significant differences
[1]; week 4, 0.005 μg/kg/min, count in cell 62
  Patients' assessment: Reported improvement from baseline (%): 62 (50%)
[1]; week 4, 0.005 μg/kg/min, count in cell 63
  Investigators' assessment: Reported improvement from baseline (%): 63 (29%)
[1]; week 4, 0.005 μg/kg/min
  Investigators' assessment: Mean change from baseline: 0.9 ± 1.28
  Patients' assessment: Mean change from baseline: 1.3 ± 1.33
[1]; week 4, 0.01 μg/kg/min, count in cell 63
  Patients' assessment: Reported improvement from baseline (%): 63 (51%)
[1]; week 4, 0.01 μg/kg/min, count in cell 62
  Investigators' assessment: Reported improvement from baseline (%): 62 (47%)
[1]; week 4, 0.01 μg/kg/min
  Patients' assessment: Mean change from baseline: 1.4 ± 1.20
[1]; week 4, 0.01 μg/kg/min, p < 0.05 compared with usual care
  Investigators' assessment: Mean change from baseline: 1.1 ± 1.28
[1]; [4]
  Patients' assessment: Reported improvement from baseline (%): 125 (50%)
  Investigators' assessment: Reported improvement from baseline (%): 125 (38%)
[1]; week 4, both nesiritide groups
  Patients' assessment: Mean change from baseline: 1.4 ± 1.26
[1]; week 4, both nesiritide groups, p < 0.05 compared with usual care
  Investigators' assessment: Mean change from baseline: 1.0 ± 1.28
[1]; week 8, 0.005 μg/kg/min, count in cell 53
  Patients' assessment: Reported improvement from baseline (%): 53 (72%)
[1]; week 8, 0.005 μg/kg/min, count in cell 50
  Investigators' assessment: Reported improvement from baseline (%): 50 (54%)
[1]; week 8, 0.005 μg/kg/min
  Patients' assessment: Mean change from baseline: 1.7 ± 1.26
[1]; week 8, 0.005 μg/kg/min, p < 0.05 compared with usual care
  Investigators' assessment: Mean change from baseline: 1.3 ± 1.35
[1]; week 8, 0.01 μg/kg/min, count in cell 56
  Patients' assessment: Reported improvement from baseline (%): 56 (68%)
[1]; week 8, 0.01 μg/kg/min, count in cell 54
  Investigators' assessment: Reported improvement from baseline (%): 54 (59%)
[1]; week 8, 0.01 μg/kg/min
  Patients' assessment: Mean change from baseline: 1.8 ± 1.26
[1]; week 8, 0.01 μg/kg/min, p < 0.05 compared with usual care
  Investigators' assessment: Mean change from baseline: 1.6 ± 1.19
[1]; week 8, both nesiritide groups, count in cell 109
  Patients' assessment: Reported improvement from baseline (%): 109 (70%)
[1]; week 8, both nesiritide groups, count in cell 104
  Investigators' assessment: Reported improvement from baseline (%): 104 (57%)
[1]; week 8, both nesiritide groups
  Patients' assessment: Mean change from baseline: 1.8 ± 1.25
[1]; week 8, both nesiritide groups, p < 0.05 compared with usual care
  Investigators' assessment: Mean change from baseline: 1.4 ± 1.27
[1]; week 12, 0.005 μg/kg/min, count in cell 54
  Patients' assessment: Reported improvement from baseline (%): 54 (76%)
[1]; week 12, 0.005 μg/kg/min, count in cell 51
  Investigators' assessment: Reported improvement from baseline (%): 51 (55%)
[1]; week 12, 0.005 μg/kg/min
  Patients' assessment: Mean change from baseline: 1.9 ± 1.39
[1]; week 12, 0.005 μg/kg/min, p < 0.05 compared with usual care
  Investigators' assessment: Mean change from baseline: 1.4 ± 1.31
[1]; [5]
  Patients' assessment: Reported improvement from baseline (%): 51 (55%)
  Investigators' assessment: Reported improvement from baseline (%): 51 (59%)
[1]; week 12, 0.01 μg/kg/min
  Patients' assessment: Mean change from baseline: 1.7 ± 1.09
[1]; week 12, 0.01 μg/kg/min, p < 0.05 compared with usual care
  Investigators' assessment: Mean change from baseline: 1.7 ± 1.16
[1]; week 12, both nesiritide groups, count in cell 105
  Patients' assessment: Reported improvement from baseline (%): 105 (66%)
[1]; week 12, both nesiritide groups, count in cell 102
  Investigators' assessment: Reported improvement from baseline (%): 102 (57%)
[1]; week 12, both nesiritide groups
  Patients' assessment: Mean change from baseline: 1.8 ± 1.25
[1]; week 12, both nesiritide groups, p < 0.05 compared with usual care
  Investigators' assessment: Mean change from baseline: 1.5 ± 1.24
endothelin-1; 0.005-μg/kg/min
  Mean change (±standard deviation) in post-infusion concentration of endothelin-1: -0.2 ± 1.5 pg/mL
endothelin-1; 0.01-μg/kg/min, p=0.04 compared to baseline
  Mean change (±standard deviation) in post-infusion concentration of endothelin-1: -0.6 ± 2.0 pg/mL
endothelin-1; after the week 12 infusion, all-nesiritide group, p=0.008 (FIG. 2B)
  Post-infusion levels of endothelin-1 versus baseline: significant change from baseline
[2]; 0.005 μg/kg/min, n = 72
  Patients with infusion stopped due to adverse event, %: 6%
  Patients with infusion stopped due to adverse event, number: 4
[2]; [6]
  Infusion completed, % of infusions: 99%
  Infusion completed, number of infusions: 814
  Infusions stopped due to adverse event, %: < 1%
  Infusions stopped due to adverse event, number: 4
[2]; 0.005 μg/kg/min
  Patients discontinued from the study before week 12 because of an AE, number: 7
  Patients discontinued from the study prematurely due to an AE, %: 10%
[2]; 0.01 μg/kg/min, n = 69
  Patients with infusion stopped due to adverse event, %: 7%
  Patients with infusion stopped due to adverse event, number: 5
[2]; [7]
  Infusion completed, % of infusions: 99%
  Infusion completed, number of infusions: 814
  Infusions stopped due to adverse event, %: < 1%
  Infusions stopped due to adverse event, number: 7
[2]; 0.01 μg/kg/min
  Patients discontinued from the study before week 12 because of an AE, number: 2
  Patients discontinued from the study prematurely due to an AE, %: 3%
[2]; 12-week treatment period
  Deaths considered related to study medication: in no case
[2]; RAS≧4 cohort
  Adverse cardiovascular or renal events compared with usual care: not associated with an increase; also recorded: tended to have a lower incidence
[2]; [8]
  Patients with infusion stopped due to adverse event, %: 6%
  Patients with infusion stopped due to adverse event, number: 9
[2]; [9]
  Infusion completed, % of infusions: 99%
  Infusion completed, number of infusions: 1628
  Infusions stopped due to adverse event, %: < 1%
  Infusions stopped due to adverse event, number: 11
[2]; all nesiritide patients, n = 141, 1645 infusions, listed as nesiritide
  Infusion completed, number of infusions: 1,628
[2]; both doses, 12 weeks, outpatient setting
  Safety and tolerability of serial outpatient infusions: similarly well tolerated; also recorded: safe and well tolerated
[2]; either nesiritide group, through 12 weeks, all patients
  Frequency of observed AEs compared with usual-care group: no increase
[2]; nesiritide groups, all patients
  Cardiovascular AEs, including symptomatic hypotension, and renal AEs compared to usual-care group: not increased
[3]
  Ventricular rhythm disturbances: did not engender ventricular rhythm disturbances
